Assay results reported in patent US20250276065A1, “Electro Magnetic Transducer Network in the Enhancement of Anti-infective Strategies” (priority 2022, published 2025).
“Also recorded” adds a separate entry of the source.

Columns and labels:
mammalian cells = conditions: cited from earlier work
[1] = system: Staphylococcus epidermidis (SE) biofilm; assay: Biofilm eradication by PEMF and Con-A t-MNPs (Example 3, preliminary data); type: cell-based; conditions: PEMF + Con-A t-MNPs + antibiotic (FIG. 9)
Method: Using Staphylococcus epidermidis (SE), the biofilm eradication increased over 80% when PEMF was administered at a frequency of 50 kHz and a magnetic field amplitude of 1.2 mT along with t-MNPs functionalized with Concanavalin-A (Con-A) that target components of the bacterial membrane, cell wall, and extracellular matrix.

S. epidermidis biofilms [2] = assay: Crystal violet assay of total biomass of pre-formed S. epidermidis biofilms, PEMF with or without antibiotic (Example 1); type: cell-based, Staphylococcus epidermidis; conditions: for eradication of S. epidermidis biofilm by antibiotic alone: antibiotic alone at MIC, no PEMF, CV and alamarBlue (FIG. 2, FIG. 3); for combined PEMF + antibiotic treatment compared to theoretical additive effect: antibiotic at MIC, all PEMF time points, p<0.001
Method: Experiments were performed initially on S. epidermidis strain ATCC 14990 and further tested on S. epidermidis strain ATCC 35984, which is known to be a particularly strong biofilm former (Okajima, Y. et al., 2006, Invest Ophthalmol Vis Sci, 47(7):2971-2975). Trypticase soy broth (TSB) (30 g l^−1 in water, autoclaved at 121° C. for 15 minutes; BD Bacto TSB from Fisher Scientific) was used for in vitro growth of bacterial cell cultures, and 50% glucose was added to the medium at a final concentration of 0.25%. Sterile Falcon 6-well, clear, flat-bottom, tissue culture-treated, cell culture plates (Corning; Lot #1059012) and sterile CELLSTAR cell culture 24-well, PS, clear, tissue culture-treated plates (Greiner; Lot #E100501A) were used for S. epidermidis cell plating and biofilm growth (6-well plates used for crystal violet assay experiments; 24-well plates used for alamarBlue assay experiments).
The PEMF apparatus was custom made in the laboratory and was previously described in Ghalayani Esfahani et al. 2019 (Esfahani, A. et al., 2019, J Appl Microbiol, 126(1):87-101). Briefly, the PEMF apparatus consisted of an acrylic shelved rack with wrap-around Helmholtz coils, a signal generator, and a power supply. […] A digital oscilloscope (TBS1000C, Tektronix, Beaverton, OR) was used to monitor the signal waveform. All plates not under PEMF treatment were kept in a 37° C. incubator, identical temperature to the PEMF incubator.
S. epidermidis biofilms were grown by initially incubating freezer stock S. epidermidis cell scrapings in TSB media at 37° C. for 24 hours with shaking. Subsequently, the cells were diluted 1:100 into TSB media containing 0.25% glucose and then aliquoted, in 3 ml or 1 ml aliquots, into 6-well or 24-well plates, respectively. To test the ability of PEMF to disrupt pre-formed biofilms, inoculated plates were incubated for 24 hours to allow biofilm formation to occur. Negative controls of only TSB media containing 0.25% glucose (i.e., no cells) were also included for all plates to ensure no contamination occurred.
Crystal Violet (CV) assay was utilized to quantify biofilm formation in vitro as previously described (Esfahani, A. et al., 2019, J Appl Microbiol, 126(1):87-101). After incubation of the biofilm in the plates with or without treatment, the media and any non-adhered cells were removed. The well of the plates were then washed with Wash Buffer three times to ensure only biofilm-adhered cells remained. Next, wells were incubated with CV at room temperature for 15 minutes. The CV stain was then removed, and wells were washed twice with water. An 80% ethanol/20% acetone solution was then added and allowed to incubate for 20 minutes at room temperature to solubilize the dye. Absorbance readings were thereafter obtained at 570 nm and recorded for each well (BMG LABTECH, FLUOstar Omega plate reader).
To test possible synergism between PEMF exposure and antibiotic treatment, the MIC of both oxacillin and vancomycin for the specific S. epidermidis strain used was determined. S. epidermidis were first incubated in TSB media at 37° C. for 24 hours with shaking. […] After 24 hours, OD600 readings of the wells were taken. The MIC of each antibiotic was determined to be the lowest concentration to show inhibition of planktonic S. epidermidis cell growth.
To confirm the reproducibility of results, all experiments were run identically at least three times with similar outcomes before results were analyzed and reported. […]

S. epidermidis biofilms [3] = assay: Eradication of pre-formed S. epidermidis biofilm by PEMF + antibiotic on plastic plates (Example 4, Phases 2 and 3); type: cell-based, Staphylococcus epidermidis; conditions: for combined PEMF + antibiotic treatment compared to theoretical additive effect: all time points, plastic 6-well plates; for eradication of S. epidermidis biofilm by antibiotic alone: no PEMF
Method: Staphylococcus epidermidis (S. epidermidis) ATCC 14990 was used for the biofilm experiments. The observed results were further confirmed by repeating said tests on S. epidermidis strain ATCC 35984. To test the above model the cells were first grown in Trypticase Soy Broth (TSB) (30 gl^−1 in purified water, autoclaved at 121° C. for 15 min; Becton, Dickinson and Company, Los Angeles, CA). The cells were incubated for 24 hours at 37° C. and then diluted 1:100 into TSB with glucose and plated. Five phases of experiments with this set-up have been successfully completed:
3) Evaluation of PEMFs ability to enhance the efficacy of antibiotic (specifically oxacillin and vancomycin) treatment against fully formed S. epidermidis biofilms on cell culture treated plastic plates.
For the biofilm inhibition experiments PEMF was applied to all experimental plates immediately after the cells were plated, with the […] being placed in a non-treated 37° C. incubator for the duration of treatment. Alternatively, for phases 2-4, cells were plated and then placed back in the non-treated 37° C. incubator for 24 hours (deemed adequate time for a biofilm to fully form through the literature and confirmed by preliminary experiments) before being exposed to PEMF.
In each phase, PEMF exposure was delivered for the following intervals: • 0 hours ([…] group, in 37° C. incubator for entirety of experiment) • 4 hours×2 cycles (exposed to PEMF hours 1-4, placed in 37° C. incubator hours 5-8, exposed to PEMF hours 9-12) • 12 hours continuously • 24 hours continuously
It is important to note that for all phase 3 trials, all PEMF exposure groups were tested as listed and compared to identical PEMF exposure times plus antibiotic. In phase 5 trials, PEMF exposure was delivered for alternate intervals of 0 hours, 3 hours, 6 hours, and 12 hours. This decision was due to the increased biofilm eradication ability of PEMF when combined with magnetic fNPs. As greater eradication was observed, it was deemed relevant to test shorter PEMF exposure intervals that are more applicable in the clinical setting.
At the conclusion of said experiments, crystal violet and alamarBlue assays were used to quantify the remaining viable biofilm in each well, and CFU/ml counts were used to quantify the planktonic (free-living) S. epidermidis cells.
The calculation performed to determine the theoretical additive effect of PEMF+antibiotic treatment and compare to the empirical effect of simultaneous PEMF and antibiotic treatment was a simple probability calculation: P(A)+(1−P(A))*P(B).

Staphylococcal membranes = conditions: within 60 minutes of exposure; cited from earlier work
[4] = up to 20 times its minimum bactericidal concentration; cited from earlier work
[5] = system: S. aureus (both methicillin- and vancomycin-resistant), S. epidermidis, and P. aeruginosa; conditions: cited from earlier work
[6] = system: Staph epidermidis biofilm; assay: AlamarBlue biofilm eradication with fNPs or NPs, PEMF and vancomycin (Example 2, Phase I); type: cell-based, Staphylococcus epidermidis
Method: A series of experiments were conducted on Staphylococcus epidermidis and aureus. Staph epidermidis cells were grown, diluted, and aliquoted onto cell culture plates. Biofilm was formed by letting the bacteria grow for 48 hrs. in the tissue culture wells. Planktonic cell growth was measured using serial dilutions and subsequently determining CFU/mL counts. Biofilm assay was performed through AlamarBlue cell viability reagent and obtaining fluorescence readings at 544/590 excitation/emission (ex/em). Magnetic nanoparticles functionalized with a lectin, Concanavalin-A, were purchase from Sigma Aldrich. Vancomycin was used as an antibiotic.
Biofilm-containing plates were exposed to different conditions and specifically: • 1) No treatment • 2) Vancomycin alone • 3) PEMF alone • 4) PEMF+Vancomycin • 5) fNPs only (5 different fNPs concentration) • 6) PEMF+fNPs (5 different fNPs concentration) • 7) PEMF+fNPs+Vancomycin (5 different fNPs concentration) • 8) NPs only (5 different fNPs concentration) • 9) PEMF+NPs (5 different fNPs concentration)
The NPs in the functionalized and non-functionalized groups had the same composition and size distribution. PEMF exposure was delivered at 37° C. and various periods: 0 hrs, 6 hrs, and 12 hrs.

## LL-37: human cathelicidin antimicrobial peptide; N-terminal-cysteine form CLLGDFFRKSKEKIGKEFKRIVQRIKDFLRNLVPRTES (SEQ ID NO: 1) (N-terminal cysteine)
Mammalian cells
  toxicity to mammalian cells: non-toxic

## Cc1onc(-c2ccccc2)c1C(=O)N[C@@H]1C(=O)N2[C@@H]1SC(C)(C)[C@@H]2C(=O)O [oxacillin]
[1]
  change in percentage of eradication when antibiotic was added to the nanoparticles: only slightly increased
S. epidermidis biofilms [2]; PEMF 24-hour exposure + antibiotic at MIC simultaneously, pre-formed biofilm, vs 48-hour control group, mean
  reduction of total biomass, quantified by CV assay: 74%
S. epidermidis biofilms [2]
  eradication of S. epidermidis biofilm by antibiotic alone: Neither oxacillin nor vancomycin (FIG. 2, FIG. 3) alone significantly eradicated
  combined PEMF + antibiotic treatment compared to theoretical additive effect: synergistically enhanced; also recorded: significantly synergistic
S. epidermidis biofilms [3]
  combined PEMF + antibiotic treatment compared to theoretical additive effect: significantly synergistic; also recorded: significant empirical synergism
  eradication of S. epidermidis biofilm by antibiotic alone: Neither oxacillin nor vancomycin alone significantly eradicated

## WR12: de novo designed synthetic antimicrobial peptide; N-terminal-cysteine form CRWWRWWRRWWRR (SEQ ID NO: 2) (N-terminal cysteine)
Staphylococcal membranes
  leakage of preloaded intracellular calcein dye: greater than 95%
[4]
  cytotoxicity levels: negligible
[5]
  antibacterial activity: potent antibacterial activity

## CN[C@H](CC(C)C)C(=O)N[C@H]1C(=O)N[C@@H](CC(N)=O)C(=O)N[C@H]2C(=O)N[C@H]3C(=O)N[C@H](C(=O)N[C@H](C(=O)O)c4cc(O)cc(O)c4-c4cc3ccc4O)[C@H](O)c3ccc(c(Cl)c3)Oc3cc2cc(c3O[C@@H]2O[C@H](CO)[C@@H](O)[C@H](O)[C@H]2O[C@H]2C[C@](C)(N)[C@H](O)[C@H](C)O2)Oc2ccc(cc2Cl)[C@H]1O [vancomycin]
[6]; PEMF + fNPs + Vancomycin
  effect on eradication of adding Vancomycin to fNPs + PEMF: does not increase much the eradication
[6]; antibiotic used alone
  increase in biofilm eradication: 5%
[1]
  change in percentage of eradication when antibiotic was added to the nanoparticles: only slightly increased
S. epidermidis biofilms [2]
  eradication of S. epidermidis biofilm by antibiotic alone: Neither oxacillin nor vancomycin (FIG. 2, FIG. 3) alone significantly eradicated
  combined PEMF + antibiotic treatment compared to theoretical additive effect: synergistically enhanced; also recorded: significantly synergistic
S. epidermidis biofilms [3]
  combined PEMF + antibiotic treatment compared to theoretical additive effect: significantly synergistic
  eradication of S. epidermidis biofilm by antibiotic alone: Neither oxacillin nor vancomycin alone significantly eradicated
